From patent US20240042045A1, “NANOPARTICLES CONTAINING MULTIPLE CLEAVABLE PRODUGS FOR CANCER THERAPY” (The University of Chicago, priority 2020, published 2024)
Structures can show the parent of a compound that is named as a salt. Where two headings read alike, the source gives them in different places. One block for each compound: values may come before it.

What was measured:
H460 cells = test: In vitro cytotoxicity in H460 cells (MTS assay); format: cell-based, human
4T1 cells = test: In vitro cytotoxicity in 4T1 cells (MTS assay); format: cell-based, murine; settings: 48 h
apoptosis/necrosis [1] = test: Apoptosis/necrosis analysis of cells treated with Carb and/or DTX; format: cell-based; settings: 10 μM Carb and/or DTX
Procedure: Apoptosis/necrosis analysis was also performed on cells treated with 10 μM Carb and/or DTX by flow cytometry.

LL/2 lung cancer cells = test: Cytotoxicity of Chol-PTX; format: cell-based
MC38 cells = test: In vitro cytotoxicity in MC38 cells; format: cell-based, murine
Procedure: (§1) The cell viability was measured by […].

CT26 cells = test: In vitro cytotoxicity in CT26 cells; format: cell-based, murine
Procedure: as §1

CT26 and MC38 cells [2] = test: In vitro cytotoxicity, values not assigned to one colon cancer cell line
albumin = albumin (Homo sapiens, UniProt P02768); test: ITC binding to albumin
Sequence of albumin (P02768 25-609, species assumed): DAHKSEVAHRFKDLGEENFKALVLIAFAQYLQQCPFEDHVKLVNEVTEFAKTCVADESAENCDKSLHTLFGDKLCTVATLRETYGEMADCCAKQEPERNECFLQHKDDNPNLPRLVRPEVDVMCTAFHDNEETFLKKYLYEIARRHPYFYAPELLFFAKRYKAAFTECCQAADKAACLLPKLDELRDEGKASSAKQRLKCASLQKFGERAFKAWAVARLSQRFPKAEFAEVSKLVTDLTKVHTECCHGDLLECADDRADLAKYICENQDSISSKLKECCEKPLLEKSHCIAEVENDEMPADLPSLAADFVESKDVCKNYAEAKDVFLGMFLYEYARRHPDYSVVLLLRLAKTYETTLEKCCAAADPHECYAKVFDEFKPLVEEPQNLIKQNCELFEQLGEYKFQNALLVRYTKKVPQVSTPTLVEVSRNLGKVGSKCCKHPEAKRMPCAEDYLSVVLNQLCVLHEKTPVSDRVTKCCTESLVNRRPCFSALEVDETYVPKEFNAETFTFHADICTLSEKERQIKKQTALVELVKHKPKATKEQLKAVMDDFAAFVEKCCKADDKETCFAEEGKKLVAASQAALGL
Text: (§2) LDL is the key transporter of cholesterol and cholesterol esters to peripheral cells. It was hypothesized that LDL would strongly bind to Chol-SN38 to enhance its delivery to tumors via LDLR-mediated endocytosis.

Panc02 cells = test: In vitro cytotoxicity in Panc02 cells (MTS assay); format: cell-based, murine
Procedure: (§3) The cell viability was measured by MTS assay.

lipoproteins = test: Distribution in lipoproteins after incubation in rat plasma (NaBr gradient ultracentrifugation, LC-MS); settings: 37° C., 3 h, Chol-SN38 measured for OxPt/SN38
Text: Lipoproteins were separated based on their densities by NaBr gradient ultracentrifugation.

LDL [3] = test: Binding kinetics to LDL in rat plasma at 37° C.; settings: for binding to LDL: Chol-SN38 measured for Chol-SN38 and OxPt/SN38
KPC cells = test: In vitro cytotoxicity in KPC cells (MTS assay); format: cell-based, murine; settings: 48 h
Procedure: as §3

LDL [4] = test: Isothermal titration calorimetry (ITC) binding to LDL
Procedure: as §2
Apparent LDL binding affinity of two control particles, OxPt NCP without chol and Chol-SN38 micelle (without the NCP core) was determined to understand which components of the particles bind to LDL.

[5] = Dynamic light scattering (DLS) of particles; format: physicochemical; settings: DLS of OxPt/GEM-core nanoparticles made with the named Chol-disulfide prodrug
Procedure: Synthesis and characterization of OxPt/GEM/SN38 core-shell nanoparticle NCP particles with OxPt-bp and gemcitabine monophosphate (GMP) in the core and Chol-SN38 on the shell, referred to as “OxPt/GMP/SN38,” was synthesized in two steps. […] An aqueous solution of Zn(NO3)2 (60 mg, 600 mg/mL) was added to a 5 mL of 0.3M Triton X-100/1.5M 1-hexanol in cyclohexane and stirred vigorously for 5 min. The Zn(NO3)2-containing microemulsion was added dropwise to the OxPt-bp-containing microemulsion and stirred vigorously for 30 min at room temperature. After the addition of 10 mL ethanol, OxPt-bare was obtained by centrifugation at 11,628×g. The resulting pellet was washed twice with THF/ethanol and finally re-dispersed in THF. The loadings of OxPt in the particles were determined by ICP-MS (Agilent 7700x, Agilent Technologies, Santa Clara, California, United States of America) after digestion with nitric acid. The particle size and zeta potential were determined by dynamic light scattering using a Zetasizer (Nano ZS, Malvern, United Kingdom).

CT26 and MC38 cells [6] = test: cells; settings: Mus musculus
apoptosis/necrosis [7] = test: Apoptosis/necrosis analysis by flow cytometry (Annexin V / PI); format: cell-based; settings: for percentage of apoptosis: flow cytometry
Procedure: Apoptosis/necrosis analysis was also performed on OxPt and/or SN38 treated cells by flow cytometry.

CT26 and MC38 cells [8] = system: CT26 and MC38 cells
[9] = Conversion of SN38-TMS to SN38 at pH 5.5 and 7.4; format: physicochemical; settings: for SN38-TMS converted to SN38: pH=5.5, 37° C.
Procedure: SN38-TMS was incubated in acidic conditions mimicking endosomes at 37° C. At pH=5.5, 70% SN38-TMS was converted to SN38 in 24 h and 92% […] SN38-TMS was converted to SN38 in 48 h.

[10] = cited from earlier work
[11] = MC38 cells, 48 h, for OxPt/SN38 the OxPt IC50, read-out: IC50
[12] = CT26 cells, 48 h, for OxPt/SN38 the OxPt IC50, read-out: IC50
[13] = Panc02 cells, 48 h, read-out: IC50

Compound: N.N.O=C([O-])C1(C(=O)[O-])CCC1.[Pt+2] [Carb, carboplatin]
- IC50 (H460 cells; 48 h): 3.9 µM
- IC50 (4T1 cells): 0.91 µM
- percentage of apoptosis (apoptosis/necrosis [1]): 2.90%

Compound: CC(=O)O[C@@]12CO[C@@H]1C[C@H](O)[C@@]1(C)C(=O)[C@H](O)C3=C(C)[C@@H](OC(=O)[C@H](OC(=O)OCOC(=O)CCC(=O)O[C@H]4CC[C@@]5(C)C(=CC[C@H]6[C@@H]7CC[C@H]([C@H](C)CCCC(C)C)[C@@]7(C)CC[C@@H]65)C4)[C@@H](NC(=O)OC(C)(C)C)c4ccccc4)C[C@](O)([C@@H](OC(=O)c4ccccc4)[C@H]21)C3(C)C [Chol-DTX, Cholesterol-Docetaxel]
- IC50 (H460 cells; Homo sapiens, NCI-H460, 48 h): 11.4 µM
- IC50 (4T1 cells; Mus musculus): 15.3 µM

Compound: CC(=O)O[C@H]1C(=O)[C@]2(C)[C@@H](OC(=O)OCOC(=O)CCC(=O)O[C@H]3CC[C@@]4(C)C(=CC[C@H]5[C@@H]6CC[C@H]([C@H](C)CCCC(C)C)[C@@]6(C)CC[C@@H]54)C3)C[C@H]3OC[C@@]3(OC(C)=O)[C@H]2[C@H](OC(=O)c2ccccc2)[C@]2(O)C[C@H](OC(=O)[C@H](O)[C@@H](NC(=O)c3ccccc3)c3ccccc3)C(C)=C1C2(C)C [Chol-PTX, Cholesterol-Paclitaxel]
- IC50 (LL/2 lung cancer cells): 3.95 µM

Compound: CCc1c2c(nc3ccc(OC(=O)OCOC(=O)CCC(=O)O[C@H]4CC[C@@]5(C)C(=CC[C@H]6[C@@H]7CC[C@H]([C@H](C)CCCC(C)C)[C@@]7(C)CC[C@@H]65)C4)cc13)-c1cc3c(c(=O)n1C2)COC(=O)[C@@]3(CC)O[Si](C)(C)C [Chol-SN38, 7-ethyl-10-(((((cholest-5-en-3-oxy)-4-oxobutanoyl)oxy)methoxy)-carbonyl)oxyl-20-O-trimethylsilyl camptothecin]
- IC50 (MC38 cells; Mus musculus, MC-38, 48 h, MC38 cells, 48 h, for OxPt/SN38 the OxPt IC50): 10.2 ± 1.99 µM
- IC50 (CT26 cells; Mus musculus, CT26, 48 h, CT26 cells, 48 h, for OxPt/SN38 the OxPt IC50): 7.41 ± 1.03 µM
- cytotoxicity relative to irinotecan (CT26 and MC38 cells [2]): 5-10 times
- Kd (albumin): 4440 µM
- IC50 (Panc02 cells; Mus musculus, Panc02, 48 h): 14.6 ± 4.87 µM
- distribution in HDL (lipoproteins): 5%
- distribution in LDL fraction (lipoproteins): 86%
- distribution in VLDL (lipoproteins): 9%
- time to reach equilibrium binding to LDL (LDL [3]): ≤ 1 h
- binding to LDL (LDL [3]): 74.5±3.6%
- IC50 (KPC cells; Mus musculus): 3.18 ± 1.01 µM
- Ka to LDL relative to binding affinity to albumin (LDL [4]): > 2000 times
- binding constant (Ka) to LDL (LDL [4]; ITC, apparent Ka for the particle): (4.97±0.24)×10^5 M^−1
- Binding affinity Ka (LDL [4]; protein LDL): 49.7 ± 2.43 10^4 M^−1

Compound: CC[C@@]1(OC(=O)OCCSSCCOC(=O)O[C@H]2CC[C@@]3(C)C(=CC[C@H]4[C@@H]5CC[C@H]([C@H](C)CCCC(C)C)[C@@]5(C)CC[C@@H]43)C2)C(=O)OCc2c1cc1n(c2=O)Cc2cc3ccccc3nc2-1 [Chol-SS-CPT]
- PDI [5]: 0.434
- Z-Average (nm) [5]: 263.2 nm

Compound: CCc1c2c(nc3ccc(OC(=O)OC(C)(C)C)cc13)-c1cc3c(c(=O)n1C2)COC(=O)[C@@]3(CC)OC(=O)OCCSSCCOC(=O)O[C@H]1CC[C@@]2(C)C(=CC[C@H]3[C@@H]4CC[C@H]([C@H](C)CCCC(C)C)[C@@]4(C)CC[C@@H]32)C1 [Chol-SS-SN38-Boc]
- PDI [5]: 0.211
- Z-Average (nm) [5]: 96.79 nm

Compound: CCc1c2c(nc3ccc(OC(=O)OCCSSCCOC(=O)O[C@H]4CC[C@@]5(C)C(=CC[C@H]6[C@@H]7CC[C@H]([C@H](C)CCCC(C)C)[C@@]7(C)CC[C@@H]65)C4)cc13)-c1cc3c(c(=O)n1C2)COC(=O)[C@@]3(CC)O[Si](C)(C)C [Chol-SS-SN38]
- PDI [5]: 0.38
- Z-Average (nm) [5]: 172.3 nm

Compound: CC(=O)O[C@@]12CO[C@@H]1C[C@H](O)[C@@]1(C)C(=O)[C@H](O)C3=C(C)[C@@H](OC(=O)[C@H](O)[C@@H](NC(=O)OC(C)(C)C)c4ccccc4)C[C@@](O)([C@@H](OC(=O)c4ccccc4)[C@H]21)C3(C)C [DTX, docetaxel]
- IC50 (H460 cells; Homo sapiens, NCI-H460, 48 h): 3.69 µM
- IC50 (4T1 cells; Mus musculus): 4.7 µM
- percentage of apoptosis (apoptosis/necrosis [1]): 3.30%

Compound: Nc1ccn([C@@H]2O[C@H](CO)[C@@H](O)C2(F)F)c(=O)n1 [GEM, gemcitabine]
- IC50 (Panc02 cells; Mus musculus, Panc02 cells, 48 h, read-out: IC50): 0.11 ± 0.03 µM
- IC50 (KPC cells; Mus musculus, KPC cells, read-out: IC50): 0.67 ± 0.18 µM

- IC50 (CT26 and MC38 cells [6]): ~80 µM
Compound: CCc1c2c(nc3ccc(OC(=O)N4CCC(N5CCCCC5)CC4)cc13)-c1cc3c(c(=O)n1C2)COC(=O)[C@]3(O)CC [Irinotecan, irinotecan]
- IC50 (MC38 cells; Mus musculus, MC-38, 48 h, read-out: IC50): 88.4 ± 7.48 µM
- IC50 (CT26 cells; Mus musculus, CT26, 48 h, read-out: IC50): 79.4 ± 6.94 µM

Compound: O=C1[O][Pt]2([NH][C@@H]3CCCC[C@H]3[NH]2)[O]C1=O [OxPt, oxaliplatin]
- early apoptotic Annexin V+/PI− cells (apoptosis/necrosis [7]): 8.0±0.6%
- percentage of apoptosis (apoptosis/necrosis [7]): 12.1%
- IC50 (MC38 cells; [11]): 11.4 ± 1.68 µM
- IC50 (CT26 cells; [12]): 9.11 ± 0.72 µM
- IC50 (Panc02 cells; [13]): 14 ± 4.88 µM
- IC50 (KPC cells; KPC cells, read-out: IC50): 5.94 ± 1.73 µM

Compound: CCc1c2c(nc3ccc(O)cc13)-c1cc3c(c(=O)n1C2)COC(=O)C3(CC)OC(=O)OC(C)(C)C (stereo not shown) [SN38-Boc, 20-O-Boc-SN38]
- cytotoxicity (CT26 and MC38 cells [8]; concentrations up to 300 μM): no cytotoxicity

Compound: CCc1c2c(nc3ccc(O)cc13)-c1cc3c(c(=O)n1C2)COC(=O)[C@@]3(CC)O[Si](C)(C)C [SN38-TMS, 20-O-Trimethylsilyl SN38]
- SN38 released from SN38-TMS ([9]; pH 7.4, 24 h): 26%
- SN38 released from SN38-TMS ([9]; pH 7.4, 48 h): 63%
- SN38-TMS converted to SN38 ([9]; 24 h): 70%
- SN38-TMS converted to SN38 ([9]; 48 h): 92%

Compound: CCc1c2c(nc3ccc(O)cc13)-c1cc3c(c(=O)n1C2)COC(=O)[C@]3(O)CC [SN38]
- Log P [10]: 3.37
- early apoptotic Annexin V+/PI− cells (apoptosis/necrosis [7]): 25.7±1.5%
- percentage of apoptosis (apoptosis/necrosis [7]): 34.8%
- IC50 (MC38 cells; [11]): 0.24 ± 0.08 µM
- IC50 (CT26 cells; [12]): 0.22 ± 0.05 µM
- IC50 of SN38 (CT26 and MC38 cells [8]; cell line not stated): 0.086 µg/mL
- IC50 (Panc02 cells; [13]): 0.17 ± 0.12 µM
- distribution in HDL (lipoproteins): 14%
- distribution in LDL fraction (lipoproteins): 17%
- distribution in albumin fraction (lipoproteins): 69%
- binding to LDL (LDL [3]): 17.1±1.5%
- IC50 (KPC cells; KPC cells, read-out: IC50): 0.3 ± 0.09 µM

Compound: CC(C)CCC[C@@H](C)[C@H]1CC[C@H]2[C@@H]3CC=C4C[C@@H](O)CC[C@]4(C)[C@H]3CC[C@]12C [cholesterol]
- Log P [10]: 7.02

Compound: CCc1c2c(nc3ccc(OC(=O)N4CCC(N5CCCCC5)CC4)cc13)-c1cc3c(c(=O)n1C2)COC(=O)[C@]3(O)CC [irinotecan hydrochloride]
- Log P [10]: −0.45

Compound: gemcitabine monophosphate [GMP]
- IC50 (Panc02 cells; [13]): 0.06 ± 0.02 µM
- IC50 (KPC cells; KPC cells, read-out: IC50): 0.3 ± 0.07 µM
